# Test results from the supplement of paper PMC10307832.
# Tests used:
# Test in all cases: relative viability (nuclei count vs DMSO), 5 days (fraction); higher = more cells survive
# [1] = compound: CC1=C(C(=NN1)C)CC2=C(C3=C(S2)N(C(=O)N(C3=O)C)CC(C)C)C(=O)N4C[C@@H](CO4)O + COc1cc2c(Oc3ccc(NC(=O)C4(C(=O)Nc5ccc(F)cc5)CC4)cc3F)ccnc2cc1OCCCN1CCOCC1 [Foretinib] (partner 0.25 µM)
# Procedure, shortened: (§1)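 Medians of duplicate plates are given as relative viability. That measure is the nuclei count in treated wells divided by the count in vehicle wells. Counts were taken on 4× images of lung cancer cell lines in 1536-well plates, 5 days after pin-tool dosing the day after seeding with one drug alone or a fixed anchor-drug dose plus five library-drug doses (not always all listed) in √10 steps.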
# [2] = compound: CC1=C(C(=NN1)C)CC2=C(C3=C(S2)N(C(=O)N(C3=O)C)CC(C)C)C(=O)N4C[C@@H](CO4)O + CS(=O)(=O)N1CCN(Cc2cc3nc(-c4cccc5[nH]ncc45)nc(N4CCOCC4)c3s2)CC1 [Pictilisib] (partner 1 µM)
# Procedure, shortened: as §1
# [3] = compound: Cc1ccccc1C(C(=O)NC1CCCCC1)N(C(=O)Cn1ccnc1C)c1cccc(F)c1 [IDH-C35] + Cc1cc(Nc2cc(N3CCN(C)CC3)nc(Sc3ccc(NC(=O)C4CC4)cc3)n2)n[nH]1 [Tozasertib] (partner 0.1 µM)
# Procedure, shortened: as §1
# [4] = compound: Cc1ccccc1C(C(=O)NC1CCCCC1)N(C(=O)Cn1ccnc1C)c1cccc(F)c1 [IDH-C35] + O=C(c1cc(Cc2n[nH]c(=O)c3ccccc23)ccc1F)N1CCN(C(=O)C2CC2)CC1 [Olaparib] (partner 8 µM)
# Procedure, shortened: as §1
Cell Line,relative viability ([1]; first compound 0.0025 µM),relative viability ([1]; first compound 0.007906 µM),relative viability ([1]; first compound 0.025 µM),relative viability ([1]; first compound 0.07906 µM),relative viability ([1]; first compound 0.25 µM),relative viability ([2]; first compound 0.0025 µM),relative viability ([2]; first compound 0.007906 µM),relative viability ([2]; first compound 0.025 µM),relative viability ([2]; first compound 0.07906 µM),relative viability ([2]; first compound 0.25 µM),relative viability ([3]; first compound 0.08 µM),relative viability ([3]; first compound 0.253 µM),relative viability ([3]; first compound 0.8 µM),relative viability ([3]; first compound 2.53 µM),relative viability ([3]; first compound 8 µM),relative viability ([4]; first compound 0.08 µM),relative viability ([4]; first compound 0.253 µM),relative viability ([4]; first compound 0.8 µM),relative viability ([4]; first compound 2.53 µM),relative viability ([4]; first compound 8 µM)
LK-2,1.04,1.12,0.981,0.928,1.16,0.548,0.509,0.67,0.696,0.607,0.157,0.197,0.178,0.184,0.203,0.842,0.772,0.575,0.701,0.73
NCI-H2126,1.28,0.958,1.03,1.29,0.947,0.513,0.493,0.509,0.478,0.494,0.81,0.812,0.865,0.824,0.884,0.896,0.928,0.92,0.912,0.917
NCI-H3122,0.936,0.982,0.988,0.99,0.983,0.644,0.618,0.642,0.606,0.587,0.363,0.401,0.394,0.317,0.42,0.583,0.537,0.587,0.623,0.665
NCI-H1975,0.946,1.06,1,0.949,0.984,0.324,0.298,0.293,0.301,0.315,0.782,0.898,0.673,0.672,0.691,0.809,0.805,0.815,0.8,0.735
NCI-H1944,0.985,1.02,0.898,1.02,0.889,0.351,0.376,0.356,0.389,0.386,0.249,0.248,0.246,0.253,0.265,0.402,0.429,0.451,0.391,0.407
LU99A,0.901,0.943,0.766,0.768,0.747,0.351,0.314,0.331,0.345,0.327,0.281,0.255,0.257,0.296,0.257,0.254,0.247,0.291,0.259,0.248
SW 1573,0.958,1.05,0.86,0.74,0.964,0.472,0.589,0.595,0.419,0.412,0.187,0.14,0.239,0.194,0.184,0.5,0.54,0.496,0.433,0.467
NCI-H2347,1.23,1.13,0.716,0.831,0.881,0.905,0.909,0.507,0.836,0.547,0.476,0.599,0.497,0.657,0.418,0.577,0.628,0.609,0.522,0.554
NCI-H2009,1.16,1.27,1.17,1.35,1.15,0.875,0.884,0.842,0.998,0.909,0.69,0.72,0.728,0.735,0.692,0.679,0.74,0.613,0.655,0.669
HCC-44,,,,,,0.615,0.689,0.616,0.6,0.616,1.06,0.906,1,0.903,0.96,0.987,0.927,0.988,0.964,0.923
NCI-H1299,1.06,1.11,1.06,1.1,1.09,0.772,0.958,0.931,0.944,0.945,,,,,,1.04,0.977,0.979,1.04,0.998
NCI-H1648,,,,,,,,,,,0.567,0.499,0.511,0.525,0.541,,0.765,0.801,0.681,0.782
NCI-H1563,0.933,0.969,0.967,0.933,0.936,0.649,0.68,0.649,0.672,0.735,,,,,,,,,,
A549,1.03,1.02,0.906,1,1.1,0.391,0.505,0.538,0.52,0.54,,,,,,0.447,0.346,0.268,0.168,0.112
NCI-H522,,,,,,,,,,,0.545,0.543,0.589,0.581,0.611,0.594,0.687,0.657,0.59,0.746
NCI-H1623,0.985,0.788,0.997,0.805,0.749,,,,,,0.414,0.423,0.464,0.452,0.431,,,,,
SW 900,1.01,1.06,0.671,0.834,1.06,,,,,,0.51,0.645,0.585,0.615,0.508,0.915,0.819,,1.02,0.83
IA-LM,1.25,1.01,1.2,1.25,1.14,0.393,0.272,0.395,0.347,0.375,,,,,,0.872,0.88,0.731,0.744,0.963
EBC-1,0.117,0.107,0.12,0.107,0.103,0.396,0.333,0.447,0.493,0.444,,,,,,0.702,0.689,0.724,0.778,0.703
